Key:
Assay in all cases: maximum observed lethal fraction; higher = more cell death
[1] = tested on: U2OS PTBP1-KO
[2] = tested on: U2OS BAX/BAK1 DKO
[3] = tested on: U2OS BCL2L12-KO
[4] = tested on: U2OS
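Further: FLICK assay: SYTOX Green fluorescence of dead cells tracked over time after drugging in 96-well plates, with total cell counts taken from Triton X-100 lysed wells.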

SMILES: CC[C@@]1(O)C(=O)OCc2c1cc1n(c2=O)Cc2cc3c(CN(C)C)c(O)ccc3nc2-1 [Topotecan]
- maximum observed lethal fraction ([1]; 0.0316 µM): 0.0741
- maximum observed lethal fraction ([1]; 0.1 µM): 0.0838
- maximum observed lethal fraction ([1]; 0.316 µM): 0.0808
- maximum observed lethal fraction ([1]; 1 µM): 0.0858
- maximum observed lethal fraction ([1]; 3.16 µM): 0.106
- maximum observed lethal fraction ([1]; 10 µM): 0.197
- maximum observed lethal fraction ([1]; 31.6 µM): 0.329
- maximum observed lethal fraction ([2]; 0.0316 µM): 0.0741
- maximum observed lethal fraction ([2]; 0.1 µM): 0.0822
- maximum observed lethal fraction ([2]; 0.316 µM): 0.0765
- maximum observed lethal fraction ([2]; 1 µM): 0.0845
- maximum observed lethal fraction ([2]; 3.16 µM): 0.0931
- maximum observed lethal fraction ([2]; 10 µM): 0.0974
- maximum observed lethal fraction ([2]; 31.6 µM): 0.177
- maximum observed lethal fraction ([3]; 0.0316 µM): 0.0781
- maximum observed lethal fraction ([3]; 0.1 µM): 0.0819
- maximum observed lethal fraction ([3]; 0.316 µM): 0.0871
- maximum observed lethal fraction ([3]; 1 µM): 0.0968
- maximum observed lethal fraction ([3]; 3.16 µM): 0.208
- maximum observed lethal fraction ([3]; 10 µM): 0.495
- maximum observed lethal fraction ([3]; 31.6 µM): 0.798
- maximum observed lethal fraction ([4]; 0.0316 µM): 0.0699
- maximum observed lethal fraction ([4]; 0.1 µM): 0.0706
- maximum observed lethal fraction ([4]; 0.316 µM): 0.0756
- maximum observed lethal fraction ([4]; 1 µM): 0.0868
- maximum observed lethal fraction ([4]; 3.16 µM): 0.233
- maximum observed lethal fraction ([4]; 10 µM): 0.5
- maximum observed lethal fraction ([4]; 31.6 µM): 0.683

SMILES: COc1cc([C@@H]2c3cc4c(cc3[C@@H](O[C@@H]3O[C@@H]5CO[C@@H](c6cccs6)O[C@H]5[C@H](O)[C@H]3O)[C@H]3COC(=O)[C@H]23)OCO4)cc(OC)c1O [Teniposide]
- maximum observed lethal fraction ([1]; 0.0316 µM): 0.079
- maximum observed lethal fraction ([1]; 0.1 µM): 0.0821
- maximum observed lethal fraction ([1]; 0.316 µM): 0.0892
- maximum observed lethal fraction ([1]; 1 µM): 0.383
- maximum observed lethal fraction ([1]; 3.16 µM): 0.686
- maximum observed lethal fraction ([1]; 10 µM): 0.763
- maximum observed lethal fraction ([1]; 31.6 µM): 0.815
- maximum observed lethal fraction ([2]; 0.0316 µM): 0.0788
- maximum observed lethal fraction ([2]; 0.1 µM): 0.0806
- maximum observed lethal fraction ([2]; 0.316 µM): 0.0807
- maximum observed lethal fraction ([2]; 1 µM): 0.0902
- maximum observed lethal fraction ([2]; 3.16 µM): 0.106
- maximum observed lethal fraction ([2]; 10 µM): 0.205
- maximum observed lethal fraction ([2]; 31.6 µM): 0.299
- maximum observed lethal fraction ([3]; 0.0316 µM): 0.0736
- maximum observed lethal fraction ([3]; 0.1 µM): 0.0745
- maximum observed lethal fraction ([3]; 0.316 µM): 0.0806
- maximum observed lethal fraction ([3]; 1 µM): 0.355
- maximum observed lethal fraction ([3]; 3.16 µM): 0.728
- maximum observed lethal fraction ([3]; 10 µM): 0.801
- maximum observed lethal fraction ([3]; 31.6 µM): 0.968
- maximum observed lethal fraction ([4]; 0.0316 µM): 0.0732
- maximum observed lethal fraction ([4]; 0.1 µM): 0.0749
- maximum observed lethal fraction ([4]; 0.316 µM): 0.0834
- maximum observed lethal fraction ([4]; 1 µM): 0.373
- maximum observed lethal fraction ([4]; 3.16 µM): 0.714
- maximum observed lethal fraction ([4]; 10 µM): 0.804
- maximum observed lethal fraction ([4]; 31.6 µM): 0.867

SMILES: CC1(C)CCC(CN2CCN(c3ccc(C(=O)NS(=O)(=O)c4ccc(NCC5CCOCC5)c([N+](=O)[O-])c4)c(Oc4cnc5[nH]ccc5c4)c3)CC2)=C(c2ccc(Cl)cc2)C1 [ABT-199]
- maximum observed lethal fraction ([1]; 0.1 µM): 0.0644
- maximum observed lethal fraction ([1]; 0.316 µM): 0.0635
- maximum observed lethal fraction ([1]; 1 µM): 0.0617
- maximum observed lethal fraction ([1]; 3.16 µM): 0.0671
- maximum observed lethal fraction ([1]; 10 µM): 0.0741
- maximum observed lethal fraction ([1]; 31.6 µM): 0.211
- maximum observed lethal fraction ([1]; 100 µM): 0.517
- maximum observed lethal fraction ([2]; 0.1 µM): 0.0501
- maximum observed lethal fraction ([2]; 0.316 µM): 0.0536
- maximum observed lethal fraction ([2]; 1 µM): 0.0531
- maximum observed lethal fraction ([2]; 3.16 µM): 0.0558
- maximum observed lethal fraction ([2]; 10 µM): 0.0561
- maximum observed lethal fraction ([2]; 31.6 µM): 0.0846
- maximum observed lethal fraction ([2]; 100 µM): 0.0728
- maximum observed lethal fraction ([3]; 0.1 µM): 0.0643
- maximum observed lethal fraction ([3]; 0.316 µM): 0.0609
- maximum observed lethal fraction ([3]; 1 µM): 0.063
- maximum observed lethal fraction ([3]; 3.16 µM): 0.0712
- maximum observed lethal fraction ([3]; 10 µM): 0.114
- maximum observed lethal fraction ([3]; 31.6 µM): 0.39
- maximum observed lethal fraction ([3]; 100 µM): 0.692
- maximum observed lethal fraction ([4]; 0.1 µM): 0.0502
- maximum observed lethal fraction ([4]; 0.316 µM): 0.0518
- maximum observed lethal fraction ([4]; 1 µM): 0.0546
- maximum observed lethal fraction ([4]; 3.16 µM): 0.0609
- maximum observed lethal fraction ([4]; 10 µM): 0.0939
- maximum observed lethal fraction ([4]; 31.6 µM): 0.239
- maximum observed lethal fraction ([4]; 100 µM): 0.52

SMILES: CN(C)C/C=C/C(=O)Nc1ccc(C(=O)N2CCC[C@@H](Nc3ncc(Cl)c(-c4c[nH]c5ccccc45)n3)C2)cc1 [THZ531]
- maximum observed lethal fraction ([1]; 0.01 µM): 0.0612
- maximum observed lethal fraction ([1]; 0.0316 µM): 0.0612
- maximum observed lethal fraction ([1]; 0.1 µM): 0.0684
- maximum observed lethal fraction ([1]; 0.316 µM): 0.17
- maximum observed lethal fraction ([1]; 1 µM): 0.346
- maximum observed lethal fraction ([1]; 3.16 µM): 0.314
- maximum observed lethal fraction ([1]; 10 µM): 0.836
- maximum observed lethal fraction ([2]; 0.01 µM): 0.061
- maximum observed lethal fraction ([2]; 0.0316 µM): 0.0622
- maximum observed lethal fraction ([2]; 0.1 µM): 0.0635
- maximum observed lethal fraction ([2]; 0.316 µM): 0.0888
- maximum observed lethal fraction ([2]; 1 µM): 0.105
- maximum observed lethal fraction ([2]; 3.16 µM): 0.0957
- maximum observed lethal fraction ([2]; 10 µM): 0.188
- maximum observed lethal fraction ([3]; 0.01 µM): 0.0636
- maximum observed lethal fraction ([3]; 0.0316 µM): 0.0649
- maximum observed lethal fraction ([3]; 0.1 µM): 0.0776
- maximum observed lethal fraction ([3]; 0.316 µM): 0.465
- maximum observed lethal fraction ([3]; 1 µM): 0.359
- maximum observed lethal fraction ([3]; 3.16 µM): 0.489
- maximum observed lethal fraction ([3]; 10 µM): 0.903
- maximum observed lethal fraction ([4]; 0.01 µM): 0.049
- maximum observed lethal fraction ([4]; 0.0316 µM): 0.0521
- maximum observed lethal fraction ([4]; 0.1 µM): 0.0575
- maximum observed lethal fraction ([4]; 0.316 µM): 0.271
- maximum observed lethal fraction ([4]; 1 µM): 0.325
- maximum observed lethal fraction ([4]; 3.16 µM): 0.46
- maximum observed lethal fraction ([4]; 10 µM): 0.923

SMILES: COc1cc([C@@H]2c3cc4c(cc3[C@@H](O[C@@H]3O[C@@H]5CO[C@@H](C)O[C@H]5[C@H](O)[C@H]3O)[C@H]3COC(=O)[C@H]23)OCO4)cc(OC)c1O [Etoposide]
- maximum observed lethal fraction ([1]; 0.0316 µM): 0.0736
- maximum observed lethal fraction ([1]; 0.1 µM): 0.0782
- maximum observed lethal fraction ([1]; 0.316 µM): 0.0848
- maximum observed lethal fraction ([1]; 1 µM): 0.0897
- maximum observed lethal fraction ([1]; 3.16 µM): 0.0981
- maximum observed lethal fraction ([1]; 10 µM): 0.384
- maximum observed lethal fraction ([1]; 31.6 µM): 0.649
- maximum observed lethal fraction ([2]; 0.0316 µM): 0.055
- maximum observed lethal fraction ([2]; 0.1 µM): 0.0596
- maximum observed lethal fraction ([2]; 0.316 µM): 0.0706
- maximum observed lethal fraction ([2]; 1 µM): 0.0746
- maximum observed lethal fraction ([2]; 3.16 µM): 0.0695
- maximum observed lethal fraction ([2]; 10 µM): 0.0871
- maximum observed lethal fraction ([2]; 31.6 µM): 0.0793
- maximum observed lethal fraction ([3]; 0.0316 µM): 0.0627
- maximum observed lethal fraction ([3]; 0.1 µM): 0.0728
- maximum observed lethal fraction ([3]; 0.316 µM): 0.083
- maximum observed lethal fraction ([3]; 1 µM): 0.0936
- maximum observed lethal fraction ([3]; 3.16 µM): 0.0967
- maximum observed lethal fraction ([3]; 10 µM): 0.341
- maximum observed lethal fraction ([3]; 31.6 µM): 0.629
- maximum observed lethal fraction ([4]; 0.0316 µM): 0.0568
- maximum observed lethal fraction ([4]; 0.1 µM): 0.0636
- maximum observed lethal fraction ([4]; 0.316 µM): 0.0687
- maximum observed lethal fraction ([4]; 1 µM): 0.0712
- maximum observed lethal fraction ([4]; 3.16 µM): 0.0784
- maximum observed lethal fraction ([4]; 10 µM): 0.31
- maximum observed lethal fraction ([4]; 31.6 µM): 0.601

SMILES: CNCc1ccc(-c2[nH]c3cc(F)cc4c3c2CCNC4=O)cc1 [Rucaparib]
- maximum observed lethal fraction ([1]; 0.1 µM): 0.0657
- maximum observed lethal fraction ([1]; 0.316 µM): 0.065
- maximum observed lethal fraction ([1]; 1 µM): 0.0647
- maximum observed lethal fraction ([1]; 3.16 µM): 0.0685
- maximum observed lethal fraction ([1]; 10 µM): 0.0766
- maximum observed lethal fraction ([1]; 31.6 µM): 0.18
- maximum observed lethal fraction ([1]; 100 µM): 0.683
- maximum observed lethal fraction ([2]; 0.1 µM): 0.0512
- maximum observed lethal fraction ([2]; 0.316 µM): 0.0548
- maximum observed lethal fraction ([2]; 1 µM): 0.0528
- maximum observed lethal fraction ([2]; 3.16 µM): 0.06
- maximum observed lethal fraction ([2]; 10 µM): 0.0652
- maximum observed lethal fraction ([2]; 31.6 µM): 0.0926
- maximum observed lethal fraction ([2]; 100 µM): 0.178
- maximum observed lethal fraction ([3]; 0.1 µM): 0.065
- maximum observed lethal fraction ([3]; 0.316 µM): 0.0637
- maximum observed lethal fraction ([3]; 1 µM): 0.0652
- maximum observed lethal fraction ([3]; 3.16 µM): 0.0687
- maximum observed lethal fraction ([3]; 10 µM): 0.0753
- maximum observed lethal fraction ([3]; 31.6 µM): 0.195
- maximum observed lethal fraction ([3]; 100 µM): 0.886
- maximum observed lethal fraction ([4]; 0.1 µM): 0.0508
- maximum observed lethal fraction ([4]; 0.316 µM): 0.0538
- maximum observed lethal fraction ([4]; 1 µM): 0.0545
- maximum observed lethal fraction ([4]; 3.16 µM): 0.057
- maximum observed lethal fraction ([4]; 10 µM): 0.0608
- maximum observed lethal fraction ([4]; 31.6 µM): 0.278
- maximum observed lethal fraction ([4]; 100 µM): 0.81

Source: the supplement of paper PMC12406974
